Measurements: PMC5864073, “A D-enantiomer of the antimicrobial peptide GL13K evades antimicrobial resistance in the Gram positive bacteria Enterococcus faecalis and Streptococcus gordonii” (PLoS ONE, 2018)
Where a SMILES comes first, the peptide text is derived from it.

What was measured:
S. gordonii dltA mutant = assay: Selection for peptide resistance, serial MIC assays; type: cell-based, Streptococcus gordonii; conditions: repeated treatment with sub-inhibitory concentrations, 2–3 experiments
Description: (§1) To investigate potential resistance development against the GL13K peptides, dilutions of the peptides were prepared and incubated as described for the MIC assay. The next day (day 0), the MIC was recorded and the culture in the well with the highest peptide concentration that allowed growth (i.e 0.5 x MIC) was diluted 1:100 and used as an inoculum for the next round of selection in a new MIC assay and so forth until a stable plateau of resistance was reached.
(§2) Fig 6 Development of resistance in S. gordonii. MICs for L-GL13K (circles) and D-GL13K (squares) were recorded on consecutive days using S. gordonii DL1 (wild-type) (open symbols) (D-enantiomer only) and dltA (closed symbols). The MIC for each day is expressed relative to the starting MIC (day 0). Data from 2–3 experiments are shown as mean ± range.

[1] = system: S. gordonii DL1 (wild-type); assay: as above; type: cell-based, Streptococcus gordonii; conditions: repeated treatment with sub-inhibitory concentrations, 2–3 experiments
Description: as §1, §2

S. gordonii DL1 dltA = assay: Minimal inhibitory concentration, broth dilution; type: cell-based, Streptococcus gordonii; conditions: THB, 20 h, 37°C, OD600, mean ± SEM
Description: (§3) The minimal inhibitory concentration (MIC) assays were performed essentially as described for cationic AMPs, but using streptococcal growth-friendly THB without the addition of blood or serum components. A working stock of 1-5x10^5 CFU/ml in 90 or 100 μl THB was added to 10 or 20 μl of a 2-fold serial peptide dilution in 0.01% acetic acid and incubated for 20 h at 37°C in 96-well polypropylene plates. The OD at 600 nm (OD600) was determined in a Synergy HT plate reader (BioTek, Winooski, VT). Control wells for growth without peptide and growth medium without bacteria were included. Bacterial cell numbers in the inoculum were verified by colony count.

S. gordonii DL1 atlS = assay: Minimal inhibitory concentration, broth dilution; type: cell-based, Streptococcus gordonii; conditions: THB, 20 h, 37°C, OD600, mean ± SEM
Description: as §3

[2] = system: S. gordonii DL1 (wild-type); assay: Minimal inhibitory concentration, broth dilution; type: cell-based, Streptococcus gordonii; set-up: key: >: Mean MIC is above the tested concentration range (this value was set at 200 mg/L for data analysis); conditions: THB, 20 h, 37°C
Description: as §3

[3] = system: E. faecalis OG1RF dltA (TX5427) biofilm; assay: Biofilm assay (Calgary device); type: cell-based, Enterococcus faecalis; conditions: 24 h biofilm of OG1RF dltA, peptide 100 mg/L, 4 h, CFU relative to the wild-type biofilm
Description: (§4) E. faecalis OG1RF, TX5427 or V583 were cultured in a Calgary device for 24h in THB. Biofilms were treated with peptides (100 mg/L) for 4h and surviving cells were sonicated and plated on THA for enumeration of CFUs.
(§5) Fig 3 Effect of GL13K peptides on biofilms of E. faecalis. Twenty-four hour biofilms of OG1RF; OG1RF dltA or V583 were treated with 100 mg/L of L-GL13K (L) or D-GL13K (D). Surviving CFU were enumerated from each peg and expressed relative to the mean CFU recovered from pegs of wild-type cells treated with buffer alone (OG1RF—C). Data from 2–4 experiments are expressed as mean ± SEM (N = 6–13). V583 was only treated with D-GL13K.

[4] = system: E. faecalis OG1RF biofilm; assay: Biofilm assay (Calgary device); type: cell-based, Enterococcus faecalis; conditions: 24 h biofilm of OG1RF, peptide 100 mg/L, 4 h, CFU enumerated
Description: as §4, §5

[5] = system: E. faecalis TX5128 (gelE-, SprE-); assay: Minimal inhibitory concentration, broth dilution; type: cell-based, Enterococcus faecalis; set-up: key: >: Mean MIC is above the tested concentration range (this value was set at 200 mg/L for data analysis); conditions: THB, 20 h, 37°C
Description: as §3

[6] = system: E. faecalis OG1RF::pMSP7551; assay: Minimal inhibitory concentration, broth dilution; type: cell-based, Enterococcus faecalis; set-up: key: >: Mean MIC is above the tested concentration range (this value was set at 200 mg/L for data analysis); conditions: E. faecalis OG1RF::pMSP7551 (un-induced); THB, 20 h, 37°C; symbol
Description: as §3

[7] = system: vancomycin-resistant E. faecalis V583; assay: Minimal inhibitory concentration, broth dilution; type: cell-based, Enterococcus faecalis; set-up: key: >: Mean MIC is above the tested concentration range (this value was set at 200 mg/L for data analysis); conditions: THB, 20 h, 37°C, symbol
Description: as §3

[8] = system: E. faecalis OG1RF::pMSP7551+nisin; assay: Minimal inhibitory concentration, broth dilution; type: cell-based, Enterococcus faecalis; set-up: key: >: Mean MIC is above the tested concentration range (this value was set at 200 mg/L for data analysis); conditions: E. faecalis OG1RF::pMSP7551+nisin (induced); THB, 20 h, 37°C; symbol
Description: as §3

E. faecalis OG1RF ebsG = assay: Minimal inhibitory concentration, broth dilution; type: cell-based, Enterococcus faecalis; set-up: key: >: Mean MIC is above the tested concentration range (this value was set at 200 mg/L for data analysis); conditions: THB, 20 h, 37°C, symbol
Description: as §3

E. faecalis OG1RF [9] = assay: Triton X-100 induced bacterial autolysis assay; type: cell-based, Enterococcus faecalis; conditions: PBS with 0.05% Triton X-100, peptide 100 mg/L, OD600 for 180 min
Description: (§6) The lysis assay followed an established protocol for bacterial autolysis with minor modifications. Exponentially growing cells were washed twice in PBS then washed once in ice-cold dH2O. The bacteria were incubated in PBS with 0.05% Triton X-100 and peptides at a concentration of 100 mg/L. OD600 was monitored spectrophotometrically for 180 min. In some experiments, the cells were incubated with the peptides for 2h in PBS+0.05% Triton X-100 and then cultured on THA to enumerate surviving cells.
(§7) Fig 2 Effect of GL13K peptides on Triton X-100 induced autolysis. E. faecalis OG1RF (A) or the autolysis-deficient strain TX5128 (B) were incubated in PBS with 0.05% Triton X-100 in the absence of peptide (control) or in the presence of 100 mg/L of L-GL13K or D-GL13K (D). The OD600 was recorded for 180 min and expressed as a percent of starting OD600 of the control sample. (C): Bactericidal activity of GL13K peptides in PBS+0.05% Triton X-100. E. faecalis OG1RF were incubated with 0.05% Triton X-100 in the absence of peptide (Ctrl) or with L-GL13K or D-GL13K for 2h. Surviving CFU were enumerated and are shown as mean ± SEM (N = 5). Peptide treated samples were compared to the untreated control by Kruskal-Wallis test with Dunn’s multiple comparison post-test. n.s., not significant.

wild-type E. faecalis = assay: Bactericidal activity in sodium phosphate buffer; type: cell-based, Enterococcus faecalis; conditions: 10^8 CFU/ml wild-type E. faecalis, no energy source, 10 mM sodium-phosphate pH 7.4, 2 h, 37°C, spotted on THA; D N = 4, L N = 3
Description: These assays were performed according to our established protocol with some modifications. Cells were washed three times in 0.9% NaCl and five μl of washed cells (10^9 CFU/ml) were added to the peptides diluted 2-fold (128 to 4 mg/L) in 45 μl of 10 mM sodium-phosphate, pH 7.4. The samples were incubated at 37°C for 2 h and 10 μl were then spotted on THA plates to assess bactericidal activity.

[10] = system: E. faecalis OG1RF (wild-type); assay: Minimal inhibitory concentration, broth dilution; type: cell-based, Enterococcus faecalis; set-up: key to MIC (mg/L): >: Mean MIC is above the tested concentration range (this value was set at 200 mg/L for data analysis); conditions: THB, 20 h, 37°C
Description: as §3

[11] = system: conditioned supernatant of protease-deficient E. faecalis (TX5128); assay: Proteolysis of peptide by conditioned culture supernatant (P. aeruginosa Xen41 bioassay); type: in vitro ADME, Enterococcus faecalis; conditions: conditioned sterile-filtered supernatant of protease-deficient E. faecalis TX5128, peptide 32 mg/L, 2 h, 37°C; bioluminescence read-out after 15 min; three independent experiments
Description: (§8) To test proteolytic processing of GL13K peptides, overnight bacterial cultures were centrifuged (5 min, 13,000 g) and the conditioned supernatants were sterile-filtered (0.22 μm, Corning). Filtered supernatant (16.8 μl) was incubated with 3.2 μl (3.2 μg) peptide at 37°C for 2 h to allow bacterial proteases in the supernatant to process the peptide. To determine residual peptide activity, 70 μl of 10 mM sodium phosphate buffer, pH 7.4 was added to each sample and then supplemented with 10 μl (10^8 CFU) of bioluminescent Pseudomonas aeruginosa Xen41 (Caliper Lifesciences; now Perkin Elmer, MA) that had been washed three times in 0.9% NaCl (final maximal peptide concentration 32 mg/L). Viability of the indicator bacteria was determined after 15 min incubation at 37°C by determining bioluminescence in a Synergy HT plate reader. The luminescence detected in the absence of added peptide was used as a measure of 100% proteolysis.
(§9) Fig 1 Relative proteolysis of GL13K peptides. (A): Wild-type (OG1RF) or the protease-negative strain (TX5128) of E. faecalis was cultured on THA containing 3% gelatin. Gelatinase activity was visualized as a turbid halo around the bacterial colonies; (B): L-GL13K (L) or D-GL13K (D) (32 mg/L) was incubated with conditioned supernatant of wild-type (OG1RF) or the protease-negative strain (TX5128) of E. faecalis for 2 h. Residual peptide activity was determined by adding bioluminescent P. aeruginosa Xen41 to the mixture. Bioluminescence from surviving bacteria was used as a measure of proteolytic degradation of each peptide and expressed relative to bacterial bioluminescence in the absence of peptides (equivalent to 100% proteolysis). Data are shown as mean ± SEM from three independent experiments and were analyzed by paired t-test for each strain. n.s., not significant.

[12] = system: conditioned supernatant of wild-type E. faecalis (OG1RF); assay: as above; type: in vitro ADME, Enterococcus faecalis; conditions: conditioned sterile-filtered supernatant of E. faecalis OG1RF, peptide 32 mg/L, 2 h, 37°C; bioluminescence read-out after 15 min; three independent experiments
Description: as §8, §9

[13] = system: E. faecalis dltA mutant (TX5427); assay: Selection for peptide resistance, serial MIC assays; type: cell-based, Enterococcus faecalis; conditions: serial passage at 0.5 x MIC, L-GL13K after two rounds, D-GL13K after seven rounds, three experiments
Description: as §1
as §2, with “4” for “6”, “E. faecalis.” for “S. gordonii.”, “E. faecalis OG1RF” for “S. gordonii DL1”, “three” for “2–3”, “SEM.” for “range.”

[14] = system: E. faecalis OG1RF dltA (TX5427); assay: Minimal inhibitory concentration, broth dilution; type: cell-based, Enterococcus faecalis; conditions: THB, 20 h, 37°C, OD600, mean ± SEM
Description: as §3

E. faecalis OG1RF [15] = assay: Bactericidal activity in PBS+0.05% Triton X-100; type: cell-based, Enterococcus faecalis; conditions: PBS+0.05% Triton X-100, peptide 100 mg/L, 2 h, CFU on THA, N = 5
Description: as §6, §7

SMILES: CC[C@H](C)[C@H](NC(=O)[C@H](CCCCN)NC(=O)CN)C(=O)N[C@H](C(=O)N[C@@H](CCCCN)C(=O)N[C@@H](CC(C)C)C(=O)N[C@@H](CCCCN)C(=O)N[C@@H](C)C(=O)N[C@@H](CO)C(=O)N[C@@H](CC(C)C)C(=O)N[C@@H](CCCCN)C(=O)N[C@@H](CC(C)C)C(=O)N[C@@H](CC(C)C)C(N)=O)[C@@H](C)CC [L-GL13K, Gly-Lys-Ile-Ile-Lys-Leu-Lys-Ala-Ser-Leu-Lys-Leu-Leu-NH2] (H-GKIIKLKASLKLL-NH2; N-terminus assumed)
- Increase of MIC relative to starting MIC (day 0) (S. gordonii dltA mutant): 16 fold
- Increase of MIC relative to starting MIC (day 0) [1]: 6 fold
- MIC (S. gordonii DL1 dltA): 11 ± 3 µg/mL
- MIC (S. gordonii DL1 atlS): 63 ± 8 µg/mL
- MIC (mg/L) ([2]; OD600, mean ± SEM): resistant
- MIC (mg/L) ([2]; symbol): >
- Reduction of viable biofilm CFU [3]: three orders of magnitude
- Reduction of viable biofilm CFU [4]: ineffective
- MIC (mg/L) ([5]; OD600, mean ± SEM): did not inhibit growth
- MIC (mg/L) ([5]; symbol): >
- MIC (mg/L) [6]: >
- MIC (mg/L) [7]: >
- MIC (mg/L) [8]: >
- MIC (mg/L) (E. faecalis OG1RF ebsG): >
- Effect on Triton X-100 induced autolysis (OD600) (E. faecalis OG1RF [9]): somewhat reduced autolysis
- Peptide concentration required for complete killing (wild-type E. faecalis): 48 ± 23 mg/L
- MIC ([10]; 1-5x10^5 CFU/ml, OD600, mean ± SEM): > 512 µg/mL
- MIC (mg/L) ([10]; OD600, symbol): >
- Proteolysis of peptide (loss of activity against bioluminescent P. aeruginosa Xen41) [11]: did not show significant proteolysis
- Proteolysis of peptide (loss of activity against bioluminescent P. aeruginosa Xen41) [12]: almost complete proteolysis
- Increase of MIC relative to starting MIC (day 0) [13]: 8 fold
- MIC [14]: 70 ± 17 µg/mL
- Reduction of viable cells under autolysis conditions (E. faecalis OG1RF [15]): small, yet non-significant, reduction of cell numbers
